Test results reported in patent publication US20130202594A1, “ALK1 Antagonists and Their Uses in Treating Renal Cell Carcinoma” (priority 2012, published 2013).
pKd: −log10 of the molar value.

Key:
786-0 cells = assay: 786-0 human RCC tumor xenograft model; assay type: in vivo, mouse; conditions: sunitinib 53.6 mg/kg gavage 6 of 7 days; ALK1-Fc 10 mg/kg IP 3 times per week
Experimental: 786-0 cells, a von Hippel Lindau (VHL)-deficient human renal cell carcinoma (RCC) cell line (see Iliopoulos et al., Nature Medicine 1995; 1:822-6), was obtained from the American Type Culture Collection, and cultured in RPMI 1640 medium (Cellgro). Media was supplemented with 2 mmol/L L-glutamine, 10% FCS, and 1% streptomycin (50 μg/mL), and cells were cultured at 37° C. with 5% CO2. 786-0 cells were harvested from subconfluent cultures by a brief exposure to 0.25% trypsin and 0.02% EDTA. Trypsinization was stopped with medium containing 10% fetal bovine serum and the cells were washed once in serum-free medium and resuspended in PBS. Only suspensions consisting of single cells with >90% viability were used for the injections.
To establish human RCC xenografts, 786-0 tumor cells were injected subcutaneously (1×10^7 cells) into the flanks of 6- to 8-week-old female athymic nude/beige mice (Charles River Laboratories) that were of 20 g average body weight. Tumors developed in >80% of the mice and were usually visible within a few days of implantation. Mice were treated with vehicle plus Fc, sunitinib plus Fc, vehicle plus ALK-Fc, or sunitinib plus ALK-Fc when the tumors had grown to a diameter of 12 mm. Sunitinib (53.6 mg/kg; Pfizer) was administered 6 of 7 days per week by gavage beginning. […] Tumors were measured every two days while mice were on treatment.

[1] = system: BMP-9 mediated Smad1/5/8 signaling in HMVEC cells; assay: SBE4-luc luciferase reporter of BMP-9 mediated Smad1/5/8 signaling in HMVEC cells; assay type: cell-based, human; conditions: 10 μg/ml, rhBMP-9 50 ng/ml
Experimental: Using a luciferase reporter construct under the control of four sequential consensus SBE sites (SBE4-luc), which are responsive to Smad1/5/8-mediated signaling, we measured BMP-9 mediated activity in the presence and absence of hALK1-Fc drug or neutralizing ALK1 specific monoclonal antibody in HMVEC cells. HMVEC cells were stimulated with rhBMP-9 (50 ng/ml), which induced Smad1/5/8-mediated transcriptional activation, evidenced here by the increase in SBE4-luc modulated transcriptional upregulation.

[2] = system: BMP10 signaling (Smad1/5/8 reporter) in T98G cells; assay: BMP10 signaling reporter assay in T98G cells transfected with ALK1; assay type: cell-based, human; conditions: 65 ng/ml, BMP10 1 ng/ml
Experimental: Effects of hALK-Fc on BMP10 signaling were determined in a cell-based assay, in which human glioblastoma T98G cells were transfected with three plasmids: 1) an expression construct encoding full-length ALK1; 2) a firefly-luciferase reporter construct (see Example 3) responsive to Smad1/5/8-mediated signaling, and 3) a Renilla-luciferase control construct. Treatment of transfected cells with recombinant human BMP10 (1 ng/ml) strongly stimulated firefly luciferase activity relative to Renilla luciferase activity (FIG. 16). Omission of the ALK1 expression construct reduced BMP10-stimulated activity by approximately two-thirds (data not shown), thus implicating ALK1 as a major mediator of the BMP10 signal. Treatment of fully transfected cells with hALK1-Fc (65 ng/ml) and BMP10 (1 ng/ml) reduced the transcriptional response compared to BMP10 alone by more than 80% (FIG. 16).

BMP10 = target: T1, BMP10 (Homo sapiens, UniProt O95393); assay: Biacore binding to hALK1-Fc: BMP10
T1 sequence (O95393 317-424): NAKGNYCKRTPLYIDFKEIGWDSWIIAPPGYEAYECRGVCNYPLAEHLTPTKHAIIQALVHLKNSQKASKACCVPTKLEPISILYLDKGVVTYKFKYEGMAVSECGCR
Experimental: ALK1 is a type 1 receptor for ligands of the TGFβ family. Multiple members of the TGFβ family were tested for binding to a human ALK1-Fc fusion protein, using a Biacore™ system.

[3] = Size exclusion chromatography of ALK1-Fc preparations (dimers vs aggregates); assay type: physicochemical
Experimental: The R&D Systems material contains approximately 13% aggregated protein, as shown by the peaks on the left hand side of the graph, as well as some lower molecular weight species. The material of SEQ ID NO:3 is greater than 99% composed of dimers of the appropriate molecular size.
In one approach, a number of different cell culture media were tested. […] The resulting material is comprised of greater than 99% dimers. […] Having identified aggregate formation as a significant problem in ALK1-Fc production, it is expected that other approaches may be developed, including approaches that involve additional purification steps (although such approaches may result in lower yield of purified protein).

[4] = system: angiogenesis in chick chorioallantoic membrane; assay: CAM (chick chorioallantoic membrane) angiogenesis assay; assay type: in vivo
From the text: In preferred embodiments, an ALK1 ECD polypeptide binds to one or more of GDF5, GDF6, GDF7, BMP9 and BMP10. […] Binding may be assessed using purified proteins in solution or in a surface plasmon resonance system, such as a Biacore™ system. […] Bioassays for angiogenesis inhibitory activity include the chick chorioallantoic membrane (CAM) assay, the mouse corneal micropocket assay, or an assay known in the art for measuring the effect of administering isolated or synthesized proteins on implanted tumors. The CAM assay is described by O'Reilly, et al., in “Angiogenic Regulation of Metastatic Growth” Cell, 1994; 79 (2):315-328. Briefly, 3 day old chicken embryos with intact yolks are separated from the egg and placed in a petri dish. After 3 days of incubation, a methylcellulose disc containing the protein to be tested is applied to the CAM of individual embryos. After 48 hours of incubation, the embryos and CAMs are observed to determine whether endothelial growth has been inhibited. The mouse corneal micropocket assay involves implanting a growth factor-containing pellet, along with another pellet containing the suspected endothelial growth inhibitor, in the cornea of a mouse and observing the pattern of capillaries that are elaborated in the cornea. Other assays are described in the Examples.
VEGF and FGF are well-known to stimulate angiogenesis. A CAM (chick chorioallantoic membrane) assay system was used to assess the angiogenic effects of GDF7.
ALK1-Fc fusions were tested for anti-angiogenic activity in the CAM assay.
ALK1-Fc proteins and a commercially available, anti-angiogenic anti-VEGF monoclonal antibody were compared in the CAM assay. The ALK1-Fc proteins had similar potency as compared to anti-VEGF. The anti-VEGF antibody bevacizumab is currently used in the treatment of cancer and macular degeneration in humans.

[5] = system: SMAD 1/5/8 phosphorylation in HUVEC cells; assay: rhBMP-9 induced SMAD 1/5/8 phosphorylation in HUVEC cells; assay type: cell-based, human; conditions: 250 ng/ml, rhBMP-9 50 ng/ml
Experimental: Activation of SMAD phosphorylation is commonly used to assay activation of upstream activin receptors. ALK1 is known to modulate phosphorylation of SMAD proteins 1,5 and 8 upon activation by its ligand. Here, we added rhBMP-9 (50 ng/ml) to initiate SMAD phosphorylation in HUVEC cells, a human endothelial cell line which innately expresses ALK1 receptor, over a timecourse of 30 minutes. Phosphorylation of SMAD 1/5/8 was seen 5 minutes after treatment of cells with ligand and phosphorylation was maintained for the entirety of the 30 minute period.

hALK1-Fc: extracellular domain of human ALK1 (amino acids 22-120) fused to a human IgG1 Fc with a minimal linker (SEQ ID NO:3/14)
tumor growth (786-0 cells): trended toward inhibiting tumor growth as a single agent
diminished transcriptional response (SBE4-luc) [1]: ~60%
reduction of transcriptional response compared to BMP10 alone [2]: more than 80%
pKd (BMP10): ~8.52
dimers [3]: greater than 99%
anti-angiogenic effect compared with anti-VEGF monoclonal antibody [4]: comparable to the effects of the anti-VEGF antibody
anti-angiogenic effect on angiogenesis stimulated by VEGF, FGF and GDF7 [4]: inhibits angiogenesis stimulated by VEGF, FGF and GDF7
SMAD 1/5/8 phosphorylation [5]: SMAD 1/5/8 phosphorylation was reduced
